Measurements: PMC7807051, “Modulation of cAMP metabolism for CFTR potentiation in human airway epithelial cells” (Scientific Reports, 2021)
Read-outs that look alike come from different tables or passages of the source.

What was measured:
ABCC4 [1] = target: T1, ABCC4 (Homo sapiens, UniProt O15439); assay: In vitro extracellular cAMP assay of ABCC4 inhibitors in HBEC6-KT cells; type: cell-based; details: IBMX 20 μM pre-treatment, forskolin 10 μM, normalized to IBMX + forskolin, read-out: half maximal inhibitory concentration (IC50), extracellular cAMP
T1 construct: ABCC4 was present in both HBEC6-KT and Calu-3 cells at all-time points, indicated by the bands present at 150 kDa; endogenous in cells; host or cells: HBEC6-KT (immortalized human bronchial epithelial cells)
T1 sequence (O15439 1-1325): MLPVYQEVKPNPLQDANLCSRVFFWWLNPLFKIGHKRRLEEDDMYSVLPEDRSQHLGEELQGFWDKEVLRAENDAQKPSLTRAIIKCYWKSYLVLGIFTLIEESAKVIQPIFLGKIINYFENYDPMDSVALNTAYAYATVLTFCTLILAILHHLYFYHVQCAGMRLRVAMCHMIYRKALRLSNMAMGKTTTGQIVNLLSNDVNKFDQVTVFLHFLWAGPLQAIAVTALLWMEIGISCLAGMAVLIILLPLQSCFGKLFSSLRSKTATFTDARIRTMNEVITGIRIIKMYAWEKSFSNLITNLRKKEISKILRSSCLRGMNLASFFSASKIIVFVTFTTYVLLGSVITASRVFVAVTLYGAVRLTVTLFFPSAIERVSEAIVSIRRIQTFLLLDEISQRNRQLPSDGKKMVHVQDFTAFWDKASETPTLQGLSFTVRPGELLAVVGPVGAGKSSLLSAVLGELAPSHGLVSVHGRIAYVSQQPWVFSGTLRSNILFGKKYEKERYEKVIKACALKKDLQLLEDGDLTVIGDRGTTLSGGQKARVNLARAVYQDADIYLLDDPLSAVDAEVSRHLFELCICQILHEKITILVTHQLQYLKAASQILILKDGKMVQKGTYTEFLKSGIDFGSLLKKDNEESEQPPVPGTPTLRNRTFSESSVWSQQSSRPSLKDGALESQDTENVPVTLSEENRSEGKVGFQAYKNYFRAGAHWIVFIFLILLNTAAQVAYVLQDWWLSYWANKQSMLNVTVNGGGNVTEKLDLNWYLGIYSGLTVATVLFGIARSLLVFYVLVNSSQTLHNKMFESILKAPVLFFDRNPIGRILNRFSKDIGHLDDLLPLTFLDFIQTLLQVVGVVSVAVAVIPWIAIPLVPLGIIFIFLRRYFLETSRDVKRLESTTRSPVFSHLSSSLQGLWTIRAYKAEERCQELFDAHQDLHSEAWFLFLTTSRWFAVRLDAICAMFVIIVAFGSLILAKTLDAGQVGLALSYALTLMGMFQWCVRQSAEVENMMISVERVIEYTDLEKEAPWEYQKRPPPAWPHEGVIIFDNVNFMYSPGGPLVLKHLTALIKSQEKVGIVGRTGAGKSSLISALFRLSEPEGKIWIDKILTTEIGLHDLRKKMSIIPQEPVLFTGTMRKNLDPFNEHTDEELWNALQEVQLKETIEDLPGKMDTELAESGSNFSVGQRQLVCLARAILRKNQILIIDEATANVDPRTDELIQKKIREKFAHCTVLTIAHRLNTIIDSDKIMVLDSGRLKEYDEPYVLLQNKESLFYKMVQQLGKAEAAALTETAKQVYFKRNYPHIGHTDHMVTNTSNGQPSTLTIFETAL
Procedure: (§2) Cells were pretreated with IBMX (20 μM) for 2 h prior to experimental conditions. After the pre-treatment of IBMX, cells were treated with ABCC4 inhibitors (0.01–100 μM) or DMSO for 30 min. Following these exposures, the cells were treated with forskolin (10 μM) for 6 h and cell-culture supernatants were collected for analysis of extracellular cAMP. The negative control was IBMX alone and the positive control was IBMX and forskolin.
(§3) For the in vitro extracellular cAMP assay, values were normalized to the positive control (IBMX and forskolin) and the half maximal inhibitory concentration (IC50) was determined. SD was calculated using data from biological replicates (n = 4–5).
Cell culture supernatants were assessed for cAMP levels 24h post-treatment.

CFTR [2] = assay: In vitro CFTR membrane potential assay in Calu-3 cells; type: cell-based, human; details: for EC50: Calu-3 cells, cAMP inducer alone
Procedure: (§1) An in vitro CFTR membrane potential assay was performed on Calu-3 cells and primary human bronchial epithelial cells, from two independent donors, cultured at 37 °C as previously described. All human samples were collected from consented individuals under ethics approval granted by Hamilton Integrated Research Ethics Board (Project Number 5099-T).
Calu-3 cells were grown for 21 days on 96-well plates and primary HBECs were grown for 14 days under air–liquid interface conditions on collagen-coated (Sigma-Aldrich) 6.5 mm Transwell Inserts (Corning). All cells were washed with HBSS prior to experimental conditions. After washing with HBSS, cells were loaded with BLUE Membrane Potential Dye (Molecular Devices, #R8042) dissolved in 37 °C chloride-free buffer (NMDG Gluconate Buffer – 150 mM NMDG-gluconate, 3 mM KCl, 10 mM HEPES, pH 7.35, 300 mOsm). Immediately after dye loading, CFTR activity measurements were taken. CFTR activity measurements are fluorescent readouts for detecting ion channel activity. CFTR inhibition was performed with CFTRinh-172 (10 μM) for all experiments to attribute changes in fluorescence as CFTR channel activity. This assay has been validated using proof of concept studies where results obtained from this assay were able to recapitulate findings obtained from direct measurements of ion channel activity using Ussing chambers. At the end of this assay, raw data was exported for statistical analysis.
For Calu-3 cells, measurements were taken during baseline (40 min), cAMP elevation (30 min), and CFTR inhibition (20 min). cAMP elevation was performed using forskolin or isoproterenol (0.0005–50 μM). For assays with ABCC4 or PDE-4 inhibitors, a pre-incubation with the inhibitors (30 min) in the plate reader was performed prior to cAMP elevation. CFTR modulator VX-770 was used at 1 μM. CFTR activity was determined by dividing a single membrane potential peak measurement after the ABCC4 or PDE-4 inhibition and cAMP elevation additions to the stabilized baseline over DMSO control.
For in vitro CFTR membrane potential assays, in Calu-3 cells, values were normalized to the averaged baseline over averaged vehicle (DMSO) control of all biological replicates. SD was calculated using data from biological replicates (n = 4–8). An area under the curve (AUC), half-maximal concentration (EC50), […] (Emax), and baseline analysis was performed for each individual replicate then averaged together. The AUC analysis is an aggregate measure of sensitivity and maximal response, allowing for the observation of the total net responsiveness of the cells. The AUC analysis was done by normalizing the individual replicates to the bottom most value of the averaged vehicle control. In primary HBECs, six independent measurements were taken within a single Transwell insert. The value is the average of at least six measurements. These values were normalized to the averaged baseline over the averaged vehicle (DMSO) control. SD was calculated by treating the six measurements as independent, with additional technical replicates (n = 6–18). An AUC and max peak analysis were performed for each measurement, then averaged together. The max peak analysis was the max CFTR activity achieved during the drug addition step.
In order to compare the independent experiments performed, a fold-change analysis using individual AUC, EC50, and Emax, determined from their respective concentration–response curves, was performed and was normalized to the averaged DMSO vehicle control. A one-way ANOVA with subsequent post-hoc test or a paired t-test was performed. Statistical analysis was performed using GraphPad Prism 6.

ABCC4 [3] = target: T1, ABCC4; assay: In vitro extracellular cAMP assay of ABCC4 inhibitors in Calu-3 cells; type: cell-based; details: IBMX 20 μM pre-treatment, forskolin 10 μM, normalized to IBMX + forskolin, read-out: half maximal inhibitory concentration (IC50), extracellular cAMP
Procedure: Cell culture supernatants were assessed for cAMP levels 24 h post-treatment.
as §2, §3

CFTR [4] = target: T2, CFTR (Homo sapiens, UniProt P13569); assay: In vitro CFTR membrane potential assay in primary human bronchial epithelial cells (air–liquid interface); type: cell-based; details: primary HBECs, one donor sample; forskolin 10 μM; VX-770 1 μM, MK-571 1.8 μM, Roflumilast 1 μM
T2 construct: endogenous in cells; host or cells: primary human bronchial epithelial cells from two donors, air–liquid interface
Procedure: as §1
Calu-3 cells were grown for 21 days on 96-well plates and primary HBECs were grown for 14 days under air–liquid interface conditions on collagen-coated (Sigma-Aldrich) 6.5 mm Transwell Inserts (Corning). All cells were washed with HBSS prior to experimental conditions. […] CFTR activity measurements are fluorescent readouts for detecting ion channel activity. CFTR inhibition was performed with CFTRinh-172 (10 μM) for all experiments to attribute changes in fluorescence as CFTR channel activity. […]
For primary HBECs, measurements were taken during baseline (8 min), drug additions (40 min), and CFTR inhibitions (18 min). cAMP elevation was performed using forskolin (10 μM). […] CFTR activity was determined by averaging six independent measurements within a single Transwell insert. […]
For in vitro CFTR membrane potential assays, in Calu-3 cells, values were normalized to the averaged baseline over averaged vehicle (DMSO) control of all biological replicates. SD was calculated using data from biological replicates (n = 4–8). […]

CFTR [5] = test system: CFTR; set-up: method as in PMID 24106801; details: Calu-3 cells; cited from earlier work
CFTR [6] = test system: CFTR; set-up: method as in PMID 24106801; details: primary non-CF HBECs; cited from earlier work
[7] = Calu-3, forskolin (FSK) curve with agent vs DMSO control
[8] = Calu-3, forskolin (FSK) curve with agent vs DMSO control, VX-770 1 μM, MK-571 1.8 μM, Ceefourin-1 4.8 μM, Roflumilast 1 μM, Rolipram 10 μM, IBMX 100 μM
[9] = Calu-3, isoproterenol (ISO) curve with agent vs DMSO control
[10] = Calu-3, isoproterenol (ISO) curve with agent vs DMSO control, same agent concentrations as E5
[11] = read-out: half maximal effective concentration (EC50), CFTR activity

T2 sequence (P13569 whole entry): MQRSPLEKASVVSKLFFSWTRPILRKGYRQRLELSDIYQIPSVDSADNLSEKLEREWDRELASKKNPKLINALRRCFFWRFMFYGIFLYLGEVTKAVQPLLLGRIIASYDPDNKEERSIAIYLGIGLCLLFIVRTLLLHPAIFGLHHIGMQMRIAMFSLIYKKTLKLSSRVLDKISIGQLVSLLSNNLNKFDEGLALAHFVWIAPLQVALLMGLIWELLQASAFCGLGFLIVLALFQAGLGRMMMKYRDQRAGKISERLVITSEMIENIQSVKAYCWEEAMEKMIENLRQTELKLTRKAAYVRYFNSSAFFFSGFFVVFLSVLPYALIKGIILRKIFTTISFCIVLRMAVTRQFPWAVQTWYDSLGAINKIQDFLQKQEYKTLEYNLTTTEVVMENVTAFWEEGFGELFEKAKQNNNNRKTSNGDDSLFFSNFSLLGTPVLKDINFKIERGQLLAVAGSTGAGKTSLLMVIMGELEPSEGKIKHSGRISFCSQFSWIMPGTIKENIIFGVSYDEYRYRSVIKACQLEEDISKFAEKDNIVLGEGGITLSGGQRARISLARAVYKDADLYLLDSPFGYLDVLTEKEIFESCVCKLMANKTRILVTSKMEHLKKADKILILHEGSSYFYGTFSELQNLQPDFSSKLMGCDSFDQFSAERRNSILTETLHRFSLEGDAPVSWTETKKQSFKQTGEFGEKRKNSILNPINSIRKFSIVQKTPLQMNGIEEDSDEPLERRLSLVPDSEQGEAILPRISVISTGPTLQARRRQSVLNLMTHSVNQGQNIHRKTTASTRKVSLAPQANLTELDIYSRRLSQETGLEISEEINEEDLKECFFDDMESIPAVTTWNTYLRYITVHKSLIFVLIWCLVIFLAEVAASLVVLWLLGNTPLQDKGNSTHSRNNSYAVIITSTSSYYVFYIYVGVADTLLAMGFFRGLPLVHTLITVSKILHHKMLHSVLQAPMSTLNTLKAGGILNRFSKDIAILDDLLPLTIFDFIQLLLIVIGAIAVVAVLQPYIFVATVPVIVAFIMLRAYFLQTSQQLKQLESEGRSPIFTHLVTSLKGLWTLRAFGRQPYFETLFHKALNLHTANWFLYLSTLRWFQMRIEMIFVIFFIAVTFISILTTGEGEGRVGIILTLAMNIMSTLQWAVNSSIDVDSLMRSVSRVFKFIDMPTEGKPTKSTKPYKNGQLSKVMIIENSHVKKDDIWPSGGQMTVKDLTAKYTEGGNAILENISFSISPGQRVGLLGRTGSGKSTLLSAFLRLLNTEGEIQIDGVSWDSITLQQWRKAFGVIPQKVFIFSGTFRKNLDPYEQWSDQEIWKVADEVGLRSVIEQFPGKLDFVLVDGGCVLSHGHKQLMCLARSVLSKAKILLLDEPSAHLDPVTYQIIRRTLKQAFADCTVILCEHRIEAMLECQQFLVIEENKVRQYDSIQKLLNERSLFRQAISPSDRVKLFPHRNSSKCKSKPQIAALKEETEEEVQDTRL

| IC50 (ABCC4 [1]) [nM] | IC50 (ABCC4 [3]) [nM] | EC50 (CFTR [2]; [11]) [nM] | EC50 (CFTR [2]; value in picture, no unit, read-out: EC50, CFTR activity (Figure 3)) [nM] | AUC of CFTR activity time course compared with VX-770 alone (CFTR [4]) | max peak of CFTR activity compared with VX-770 alone (CFTR [4]) | SMILES | Baseline of concentration–response curve, CFTR activity (CFTR [2]; [7]) | EC50 of concentration–response curve, CFTR activity (CFTR [2]; [7]) | Emax of concentration–response curve, CFTR activity (CFTR [2]; [7]) | AUC of concentration–response curve, CFTR activity (CFTR [2]; [8]) | Baseline of concentration–response curve, CFTR activity (CFTR [2]; [9]) | EC50 of concentration–response curve, CFTR activity (CFTR [2]; [9]) | Emax of concentration–response curve, CFTR activity (CFTR [2]; [9]) | AUC of concentration–response curve, CFTR activity (CFTR [2]; [10]) | maximal degree of change for CFTR activity (CFTR [2]; Calu-3, ISO compared with FSK, inducers alone) | CFTR potentiation beyond max FSK stimulation (CFTR [5]) | CFTR activation (CFTR [6]) |
| --- | --- | --- | --- | --- | --- | --- | --- | --- | --- | --- | --- | --- | --- | --- | --- | --- | --- |
| 4800 | 700 |  |  |  |  | Cn1c(CSc2nc3ccccc3s2)n[nH]c1=S [Ceefourin-1] | No combination of ABCC4 inhibitor and cAMP-elevating agent changed CFTR activity | No combination of ABCC4 inhibitor and cAMP-elevating agent changed CFTR activity | No combination of ABCC4 inhibitor and cAMP-elevating agent changed CFTR activity | No combination of ABCC4 inhibitor and cAMP-elevating agent changed CFTR activity | No combination of ABCC4 inhibitor and cAMP-elevating agent changed CFTR activity | No combination of ABCC4 inhibitor and cAMP-elevating agent changed CFTR activity | No combination of ABCC4 inhibitor and cAMP-elevating agent changed CFTR activity | No combination of ABCC4 inhibitor and cAMP-elevating agent changed CFTR activity |  |  |  |
|  |  | 190 |  |  |  | C=C[C@@]1(C)CC(=O)[C@]2(O)[C@@]3(C)[C@@H](O)CCC(C)(C)[C@@H]3[C@H](O)[C@H](OC(C)=O)[C@@]2(C)O1 [FSK, forskolin] |  |  |  |  |  |  |  |  |  |  |  |
|  |  |  |  |  |  | CC(C)Cn1c(=O)n(C)c(=O)c2[nH]cnc21 [IBMX] |  |  |  | Significant increases | significant increases |  |  | Significant increases |  |  |  |
|  |  | 70 | 66 |  |  | CC(C)NCC(O)c1ccc(O)c(O)c1 (stereo not drawn) [ISO, isoproterenol] |  |  |  |  |  |  |  |  | greater |  |  |
|  |  |  |  |  |  | CN(C)C(=O)CCSC(SCCC(=O)O)c1cccc(/C=C/c2ccc3ccc(Cl)cc3n2)c1 (stereo not drawn) [MK-571] | No combination of ABCC4 inhibitor and cAMP-elevating agent changed CFTR activity | No combination of ABCC4 inhibitor and cAMP-elevating agent changed CFTR activity | No combination of ABCC4 inhibitor and cAMP-elevating agent changed CFTR activity | No combination of ABCC4 inhibitor and cAMP-elevating agent changed CFTR activity | No combination of ABCC4 inhibitor and cAMP-elevating agent changed CFTR activity | No combination of ABCC4 inhibitor and cAMP-elevating agent changed CFTR activity | No combination of ABCC4 inhibitor and cAMP-elevating agent changed CFTR activity | No combination of ABCC4 inhibitor and cAMP-elevating agent changed CFTR activity |  |  |  |
|  |  |  |  | significantly greater than VX-770 alone | significantly greater than VX-770 alone | O=C(Nc1c(Cl)cncc1Cl)c1ccc(OC(F)F)c(OCC2CC2)c1 [Roflumilast] | not different | not different | not different | not FSK | not different | not different | not different | significant increases |  | did not potentiate CFTR activity beyond the max stimulation that resulted from the addition of FSK | led to CFTR activation |
|  |  |  |  |  |  | COc1ccc(C2CNC(=O)C2)cc1OC1CCCC1 (stereo not drawn) [Rolipram] | not different | not different | not different | not FSK | not different | not different | not different | significant increases |  |  |  |
